Each structure is given as a SMILES string.

By IC50 is commonly meant the concentration needed to halve the response being measured.

The target in this assay is influenza A virus minigenome (PB2, PB1, PA, NP proteins) (UniProt P04665). The assay is classed as cell-based. The conditions noted are these: read-out: RNP_ Hubei B IC50.
Chain of influenza A virus minigenome (PB2, PB1, PA, NP proteins) (P04665 whole entry): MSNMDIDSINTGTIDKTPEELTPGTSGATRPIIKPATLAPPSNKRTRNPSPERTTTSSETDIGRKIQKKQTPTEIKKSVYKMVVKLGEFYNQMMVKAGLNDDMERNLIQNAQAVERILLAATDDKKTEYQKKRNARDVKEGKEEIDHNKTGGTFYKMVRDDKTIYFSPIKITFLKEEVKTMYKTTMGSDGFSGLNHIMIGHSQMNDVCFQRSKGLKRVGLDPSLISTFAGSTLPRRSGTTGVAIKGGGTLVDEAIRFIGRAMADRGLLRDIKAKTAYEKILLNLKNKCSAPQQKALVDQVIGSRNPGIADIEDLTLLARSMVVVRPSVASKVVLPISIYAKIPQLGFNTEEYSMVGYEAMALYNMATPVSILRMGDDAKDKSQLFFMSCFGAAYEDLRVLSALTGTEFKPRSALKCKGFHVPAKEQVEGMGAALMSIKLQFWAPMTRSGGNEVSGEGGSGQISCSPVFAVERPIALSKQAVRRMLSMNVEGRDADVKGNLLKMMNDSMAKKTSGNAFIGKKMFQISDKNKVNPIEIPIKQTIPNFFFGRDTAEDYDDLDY
For `[2H]C([2H])([2H])OC[C@@]1(C)COC[C@@H](COc2ccc(-c3cc(C(N)=O)c(=O)[nH]c3C(F)(F)F)cc2)O1` [Example 410, 5-(4-(((2S,6S)-6-((methoxy-d3)methyl)-6-methyl-1,4-dioxan-2-yl)methoxy)phenyl)-2-oxo-6-(trifluoromethyl)-1,2-dihydropyridine-3-carboxamide], the IC50 was in the range of 5 to 10 µM.

Turning to `C[C@]1(CC#N)COC[C@@H](COc2ccc(-c3cc(C(N)=O)c(=O)[nH]c3C(F)(F)F)cc2)O1` [Example 411, 5-(4-(((2S,6S)-6-(cyanomethyl)-6-methyl-1,4-dioxan-2-yl)methoxy)phenyl)-2-oxo-6-(trifluoromethyl)-1,2-dihydropyridine-3-carboxamide], the IC50 lay within 5 to 10 µM.

For the compound `C[C@]1(CS(C)(=O)=O)COC[C@@H](COc2ccc(-c3cc(C(N)=O)c(=O)[nH]c3C(F)(F)F)cc2)O1` [Example 412, 5-(4-(((2S,6R)-6-methyl-6-((methylsulfonyl)methyl)-1,4-dioxan-2-yl)methoxy)phenyl)-2-oxo-6-(trifluoromethyl)-1,2-dihydropyridine-3-carboxamide], the half-inhibitory concentration (IC50) is 5 to 10 µM.

Regarding `C[C@]1(CS(=O)(=O)C2CC2)COC[C@@H](COc2ccc(-c3cc(C(N)=O)c(=O)[nH]c3C(F)(F)F)cc2)O1` [Example 413, 5-(4-(((2S,6R)-6-((cyclopropylsulfonyl)methyl)-6-methyl-1,4-dioxan-2-yl)methoxy)phenyl)-2-oxo-6-(trifluoromethyl)-1,2-dihydropyridine-3-carboxamide], the half-inhibitory concentration (IC50) fell in the range of 5 to 10 µM.

On to `COCC1(COC)COC[C@@H](COc2ccc(-c3cc(C(N)=O)c(=O)[nH]c3C(F)(F)F)cc2)O1` [Example 414, (S)-5-(4-((6,6-bis(methoxymethyl)-1,4-dioxan-2-yl)methoxy)phenyl)-2-oxo-6-(trifluoromethyl)-1,2-dihydropyridine-3-carboxamide], for which the 50% inhibitory concentration (IC50) was 5 to 10 µM.

Regarding `NC(=O)c1cc(-c2ccc(OC[C@@H]3COCC4(COC4)O3)cc2)c(C(F)(F)F)[nH]c1=O` [Example 415, (S)-5-(4-((2,5,8-trioxaspiro[3.5]nonan-6-yl)methoxy)phenyl)-2-oxo-6-(trifluoromethyl)-1,2-dihydropyridine-3-carboxamide], the IC50 was in the range of 5 to 10 µM.

Turning to `NC(=O)c1cc(-c2ccc(OC[C@@H]3COCC4(COCCOC4)O3)cc2)c(C(F)(F)F)[nH]c1=O` [Example 416, (S)-5-(4-((1,4,8,11-tetraoxaspiro[5.6]dodecan-2-yl)methoxy)phenyl)-2-oxo-6-(trifluoromethyl)-1,2-dihydropyridine-3-carboxamide], the IC50 lay in the range of 5 to 10 µM.

Consider `COC[C@@]1(CF)COC[C@@H](COc2ccc(-c3cc(C(N)=O)c(=O)[nH]c3C(F)(F)F)cc2)O1` [Example 417, 5-(4-(((2S,6S)-6-(fluoromethyl)-6-(methoxymethyl)-1,4-dioxan-2-yl)methoxy)phenyl)-2-oxo-6-(trifluoromethyl)-1,2-dihydropyridine-3-carboxamide], for which the IC50 was 5 to 10 µM.

In the case of `COC[C@@]1(CCl)COC[C@@H](COc2ccc(-c3cc(C(N)=O)c(=O)[nH]c3C(F)(F)F)cc2)O1` [Example 418, 5-(4-(((2S,6S)-6-(chloromethyl)-6-(methoxymethyl)-1,4-dioxan-2-yl)methoxy)phenyl)-2-oxo-6-(trifluoromethyl)-1,2-dihydropyridine-3-carboxamide], the IC50 fell in the range of 5 to 10 µM.

Regarding `C[C@@]1(CF)COC[C@@H](COc2ccc(-c3cc(C(N)=O)c(=O)[nH]c3C(F)(F)F)cc2)O1` [Example 419, 5-(4-(((2S,6S)-6-(fluoromethyl)-6-methyl-1,4-dioxan-2-yl)methoxy)phenyl)-2-oxo-6-(trifluoromethyl)-1,2-dihydropyridine-3-carboxamide], the IC50 lay in the range of 5 to 10 µM.

Take `C[C@]1(CF)COC[C@@H](COc2ccc(-c3cc(C(N)=O)c(=O)[nH]c3C(F)(F)F)cc2)O1` [Example 420, 5-(4-(((2S,6R)-6-(fluoromethyl)-6-methyl-1,4-dioxan-2-yl)methoxy)phenyl)-2-oxo-6-(trifluoromethyl)-1,2-dihydropyridine-3-carboxamide]: the IC50 was 5 to 10 µM.

Turning to `C[C@@]1(CN2CC(F)C2)COC[C@@H](COc2ccc(-c3cc(C(N)=O)c(=O)[nH]c3C(F)(F)F)cc2)O1` [Example 421], the IC50 is 5 to 10 µM.

With `C[C@@]1(CN2CC(F)(F)C2)COC[C@@H](COc2ccc(-c3cc(C(N)=O)c(=O)[nH]c3C(F)(F)F)cc2)O1` [Example 422, 5-(4-(((2S,6R)-6-((3,3-difluoroazetidin-1-yl)methyl)-6-methyl-1,4-dioxan-2-yl)methoxy)phenyl)-2-oxo-6-(trifluoromethyl)-1,2-dihydropyridine-3-carboxamide], the half-maximal inhibitory concentration (IC50) fell in the range of 5 to 10 µM.

Turning to `CN(C)C[C@@]1(C)COC[C@@H](COc2ccc(-c3cc(C(N)=O)c(=O)[nH]c3C(F)(F)F)cc2)O1` [Example 423, 5-(4-(((2S,6S)-6-((dimethylamino)methyl)-6-methyl-1,4-dioxan-2-yl)methoxy)phenyl)-2-oxo-6-(trifluoromethyl)-1,2-dihydropyridine-3-carboxamide], the half-maximal inhibitory concentration (IC50) was 5 to 10 µM.

Regarding `CN(C)C[C@]1(C)COC[C@@H](COc2ccc(-c3cc(C(N)=O)c(=O)[nH]c3C(F)(F)F)cc2)O1` [Example 424, 5-(4-(((2S,6R)-6-((dimethylamino)methyl)-6-methyl-1,4-dioxan-2-yl)methoxy)phenyl)-2-oxo-6-(trifluoromethyl)-1,2-dihydropyridine-3-carboxamide], the IC50 lay in the range of 5 to 10 µM.

On to `C[C@]1(COC(F)F)COC[C@@H](COc2ccc(-c3cc(C(N)=O)c(=O)[nH]c3C(F)(F)F)cc2)O1` [Example 425, 5-(4-(((2S,6R)-6-((difluoromethoxy)methyl)-6-methyl-1,4-dioxan-2-yl)methoxy)phenyl)-2-oxo-6-(trifluoromethyl)-1,2-dihydropyridine-3-carboxamide], for which the IC50 lay in the range of 5 to 10 µM.

As for `COCC[C@@]1(C)COC[C@@H](COc2ccc(-c3cc(C(N)=O)c(=O)[nH]c3C(F)(F)F)cc2)O1` [Example 426, 5-(4-(((2S,6S)-6-(2-methoxyethyl)-6-methyl-1,4-dioxan-2-yl)methoxy)phenyl)-2-oxo-6-(trifluoromethyl)-1,2-dihydropyridine-3-carboxamide], the IC50 fell in the range of 5 to 10 µM.

Take `C[C@]1(COC2COC2)COC[C@@H](COc2ccc(-c3cc(C(N)=O)c(=O)[nH]c3C(F)(F)F)cc2)O1` [Example 427, 5-(4-(((2S,6R)-6-methyl-6-((oxetan-3-yloxy)methyl)-1,4-dioxan-2-yl)methoxy)phenyl)-2-oxo-6-(trifluoromethyl)-1,2-dihydropyridine-3-carboxamide]: the half-maximal inhibitory concentration (IC50) is 5 to 10 µM.

`CCOC[C@@]1(C)COC[C@@H](COc2ccc(-c3cc(C(N)=O)c(=O)[nH]c3C(F)(F)F)cc2)O1` [Example 428, 5-(4-(((2S,6S)-6-(ethoxymethyl)-6-methyl-1,4-dioxan-2-yl)methoxy)phenyl)-2-oxo-6-(trifluoromethyl)-1,2-dihydropyridine-3-carboxamide]: the IC50 fell in the range of 5 to 10 µM.

Take `CC1(OC[C@@]2(C)COC[C@@H](COc3ccc(-c4cc(C(N)=O)c(=O)[nH]c4C(F)(F)F)cc3)O2)COC1` [Example 429]: the IC50 was 5 to 10 µM.

Source of the values: US20240360082A1, “SUBSTITUTED PYRIDONE COMPOUNDS USEFUL TO TREAT ORTH[…]” (priority 2021, published 2024).
